Results: patent US7241791B2, “Substituted 4-(indazol-3-yl)phenols” (Wyeth, priority 2002, dated 2007)
Values joined by “and” are separate entries in the source; they are usually repeats but may differ in a detail not shown here. Identical values can stand only once.

Experiments:
human ERα [1] = molecular target: T1, human ERα (Homo sapiens, UniProt P03372); assay: Creatine kinase expression (ER/CK) in Ad5-wt-hERα infected HAECT-1 cells; conditions: for ER/CK % E2: efficacy relative to the maximal stimulation observed with E2
T1 sequence (P03372 1-595): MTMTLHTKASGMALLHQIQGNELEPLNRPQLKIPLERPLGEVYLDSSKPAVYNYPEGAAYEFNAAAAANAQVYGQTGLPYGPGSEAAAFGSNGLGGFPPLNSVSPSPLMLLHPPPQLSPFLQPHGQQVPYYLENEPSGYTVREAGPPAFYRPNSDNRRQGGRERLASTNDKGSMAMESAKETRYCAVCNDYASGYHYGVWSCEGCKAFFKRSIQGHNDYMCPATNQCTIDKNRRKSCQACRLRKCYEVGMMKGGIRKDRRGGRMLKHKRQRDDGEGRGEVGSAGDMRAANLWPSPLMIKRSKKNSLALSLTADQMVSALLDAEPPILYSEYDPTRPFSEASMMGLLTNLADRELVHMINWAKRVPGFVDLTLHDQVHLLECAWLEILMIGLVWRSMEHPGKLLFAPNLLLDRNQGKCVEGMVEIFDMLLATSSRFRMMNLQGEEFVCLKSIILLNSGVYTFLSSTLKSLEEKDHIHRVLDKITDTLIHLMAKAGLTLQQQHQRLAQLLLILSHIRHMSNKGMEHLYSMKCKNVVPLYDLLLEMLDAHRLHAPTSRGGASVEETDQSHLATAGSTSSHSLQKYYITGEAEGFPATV

human ERα [2] = molecular target: T1, human ERα; assay: NF-κB luciferase reporter (ER/NF-KB-luc) in Ad5-wt-hERα infected HAECT-1 cells; conditions: for IC50: ER/NF-KB-luc IC50, Ad5-wt-ER infected HAECT-1 cells, IL-1β; for Emax: HAECT1, read-out: ER/NF-KB-luc % E2, efficacy relative to the maximal inhibition observed with E2

Row | EC50 (human ERα [1]) [nM] | ER/CK % E2 (human ERα [1]) [% E2] | IC50 (human ERα [2]) | Emax (human ERα [2]) [%] | ER/NF-KB-luc % E2 (human ERα [2]; efficacy relative to the maximal inhibition observed with E2) [% E2] | Structure (SMILES)
1 | 137 | 87 | 66 nM | 115 | – | Cc1cccc2c(-c3ccc(O)cc3)n[nH]c12 [Example 34, 4-(7-methyl-1H-indazol-3-yl) phenol]
2 | 57 | 46 | 9 nM | 89 | – | Cc1cccc2c(-c3ccc(O)cc3)nn(C(C)C)c12 [Example 39, 4-(1-isopropyl-7-methyl-1H-indazol-3-yl)phenol]
3 | 787 | 24 | 80 nM | 82 | – | Cc1cc(O)ccc1-c1nn(C(C)C)c2c(F)cccc12 [Example 91, 4-(7-fluoro-1-isopropyl-1H-indazole-3-yl)-3-methylphenol]
4 | 51 | 34 | 37 nM | 92 | – | Oc1ccc(-c2nn(C3CCCCC3)c3c(F)cccc23)cc1 [Example 33, 4-(1-cyclohexyl-7-fluoro-1H-indazol-3-yl)phenol]
5 | 208 | 33 | 33 nM | 48 | – | Oc1ccc(-c2nn(C3CCCC3)c3c(-c4ccco4)cccc23)cc1 [Example 244, 4-[1-cyclopentyl-7-(2-furyl)-1H-indazol-3-yl]phenol]
6 | 1320 | 92 | 349 nM | 95 | – | Cn1nc(-c2ccc(O)cc2O)c2cc(F)ccc21 [Example 172, 4-(5-fluoro-1-methyl-1H-indazol-3-yl)benzene-1,3-di]
7 | 79 | 49 | 42 nM | 107 | – | CCCn1nc(-c2ccc(O)cc2)c2cccc(C(F)(F)F)c21 [Example 48, 4-[1-propyl-7-(trifluoromethyl)-1H-indazol-3-yl]phenol]
8 | 1370 | 86 | 347 nM | 95 | – | Cn1nc(-c2ccc(O)cc2)c2cc(F)ccc21 [Example 168, 4-(5-fluoro-1-methyl-1H-indazol-3-yl)phenol]
9 | 401 | 49 | 26 nM | 90 | – | CC(C)n1nc(-c2ccc(O)cc2)c2cccc(F)c21 [Example 55, 4-(7-fluoro-1-isopropyl-1H-indazol-3-yl)phenol]
10 | 1000 | 30 | 303 nM | 100 | – | CCCCn1nc(-c2ccc(O)cc2)c2ccc(C(F)(F)F)cc21 [Example 198, 4-[1-butyl-6-(trifluoromethyl)-1H-indazol-3-yl]phenol]
11 | 121 | 43 | 31 nM | 86 | – | CC(C)n1nc(-c2ccc(O)cc2)c2cccc(Cl)c21 [Example 45, 4-(7-chloro-1-isopropyl-1H-indazol-3-yl)pheno]
12 | 166 | 91 | 27 nM and 246 nM | 82 | 71 | CCC(=O)Oc1ccc(-c2nn(C3CCCC3)c3c(F)cccc23)cc1 [Example 115, 4-(1-cyclopentyl-7-fluoro-1H-indazol-3-yl)phenyl propionate]
13 | 279 | 21 | 56 nM | 70 | – | CC(C)n1nc(-c2ccc(O)cc2)c2cccc(-c3cccs3)c21 [Example 227, 4-(1-isopropyl-7-thien-2-yl-1H-indazol-3-yl)phenol]
14 | 413 | 27 | 255 nM | 83 | – | CCCn1nc(-c2ccc(O)cc2C)c2cccc(Cl)c21 [Example 86, 4-(7-chloro-1-propyl-1H-indazole-3-yl)-3-methylphenol]
15 | 704 | 32 | 235 nM | 68 | – | CCC(CC)Cn1nc(-c2ccc(O)cc2O)c2cccc(C(F)(F)F)c21 [Example 69, 4-[1-(2-ethylbutyl)-7-(trifluoromethyl)-1H-indazol-3-yl]benzene-1,3-diol]
16 | 15 | 21 | 15 nM | 74 | – | Cc1cc(O)ccc1-c1nn(C2CCCC2)c2c(-c3ccccc3C)cccc12 [Example 264, 4-[1-cyclopentyl-7-(2-methylphenyl)-1H-indazol-3-yl]-3-methyl-phenol]

Row | EC50 (human ERα [1]) [nM] | ER/CK % E2 (human ERα [1]) [% E2] | IC50 (human ERα [2]) | Emax (human ERα [2]) [%] | ER/NF-KB-luc % E2 (human ERα [2]; efficacy relative to the maximal inhibition observed with E2) [% E2] | Structure (SMILES)
17 | 588 | 29 | 311 nM | 83 | – | Cn1nc(-c2ccc(O)cc2O)c2cccc(C(F)(F)F)c21 [Example 167, 4-[1-methyl-7-(trifluoromethyl)-1H-indazol-3-yl]benzene-1,3-diol]
18 | 133 | 36 | 5 nM | 90 | – | C=CCn1nc2c(C(F)(F)F)cccc2c1-c1ccc(O)cc1 [Example 59, 4-[2-allyl-7-(trifluoromethyl)-2H-indazol-3-yl]phenol]
19 | 17 | 42 | 12 nM | 70 | – | Cc1cc(O)ccc1-c1nn(C(C)C)c2c(-c3ccsc3)cccc12 [Example 247, 4-(1-isopropyl-7-thien-3-yl-1H-indazol-3-yl)-3-methylphenol]
20 | 2930 | 71 | 443 nM | 121 | – | Oc1ccc(-c2nn(Cc3ccccc3)c3ccc(C(F)(F)F)cc23)c(O)c1 [Example 182, 4-[1-benzyl-5-(trifluoromethyl)-1H-indazol-3-yl]benzene-1,3-diol]
21 | 308 | 62 | 33 nM | 92 | – | Cc1cc(O)ccc1-c1c2cccc(Cl)c2nn1C(C)C [Example 81, 4-(7-chloro-2-isopropyl-2H-indazol-3-yl)-3-methylphenol]
22 | 223 | 35 | 16 nM | 74 | – | Cc1ccccc1-c1cccc2c(-c3ccc(O)cc3)nn(C(C)C)c12 [Example 235, 4-[1-isopropyl-7-(2-methylphenyl)-1H-indazol-3-yl]phenol]
23 | 138 | 28 | 6 nM | 82 | – | Cc1cc(O)ccc1-c1nn(C2CCCC2)c2c(-c3ccccc3)cccc12 [Example 265, 4-(1-cyclopentyl-7-phenyl-1H-indazol-3-yl)-3-methylphenol]
24 | 327 | 43 | 106 nM | 84 | – | C=CCn1nc(-c2ccc(O)cc2)c2cccc(F)c21 [Example 50, 4-(1-allyl-7-fluoro-1H-indazol-3-yl)phenol]
25 | 3250 | 32 | 382 nM | 78 | – | CC(C)n1nc(-c2ccc(O)cc2)c2cccc(-c3ccc(O)c(O)c3)c21 [Example 231, 4-[3-(4-hydroxyphenyl)-1-isopropyl-1H-indazol-7-yl]benzene-1,2-diol]
26 | 17 | 32 | 29 nM | 56 | – | Oc1ccc(-c2nn(C3CCCC3)c3c(C(F)(F)F)cccc23)c(O)c1 [Example 66, 4-[1-cyclopentyl-7-(trifluoromethyl)-1H-indazol-3-yl] benzene-1,3-diol]
27 | 57 | 20 | 22 nM | 86 | – | CCCn1nc(-c2ccc(O)cc2C)c2cccc(C(F)(F)F)c21 [Example 76, 3-methyl-4-[1-propyl-7-(trifluoromethyl)-1H-indazol-3-yl]phenol]
28 | 72 | 55 | 239 nM | 76 | – | Cc1cccc(-n2nc(-c3ccc(O)cc3O)c3ccc(O)cc32)c1 [Example 23, 4-[6-hydroxy-1-(3-methylphenyl)-1H-indazol-3-yl]benzene-1,3-diol]
29 | 902 | 27 | 473 nM | 84 | – | CCCCn1nc(-c2ccc(O)cc2)c2cc(C(F)(F)F)ccc21 [Example 206, 4-[1-butyl-5-(trifluoromethyl)-1H-indazol-3-yl]phenol]
30 | 111 | 27 | 17 nM | 76 | – | Oc1ccc(-c2c3cccc(Cl)c3nn2C2CCCC2)cc1 [Example 52, 4-(7-chloro-2-cyclopentyl-2H-indazol-3-yl)phenol]
31 | 184 | 31 | 58 nM | 84 | – | CCCn1nc(-c2ccc(O)cc2)c2cccc(F)c21 [Example 53, 4-(7-fluoro-1-propyl-1H-indazol-3-yl)phenol]

Row | Structure (SMILES) | EC50 (human ERα [1]) [nM] | ER/CK % E2 (human ERα [1]) [% E2] | IC50 (human ERα [2]) | Emax (human ERα [2]) [%] | ER/NF-KB-luc % E2 (human ERα [2]; efficacy relative to the maximal inhibition observed with E2) [% E2]
32 | CC(C)(C)OC(=O)N[C@@H](CCC(=O)Oc1ccc(-c2nn(C3CCCC3)c3c(F)cccc23)cc1)C(=O)OC(C)(C)C [Example 117, 1-tert-butyl 5-[4-(1-cyclopentyl-7-fluoro-1H-indazol-3-yl)phenyl] N-(tert-butoxycarbonyl)-L-glutamate] | 169 | 22 | 150 nM | 52 | –
